# Article PMC11362529, “Exploring the neuroprotective potential of Nrf2-pathway activators against annonacin toxicity” (Scientific Reports, 2024)
# Tested on: LUHMES cells
# Assay: Annonacin titration, calcein viability assay
# Format: cell-based, human
# Details: 20 nM annonacin, 48 h, glucose-reduced medium
# Protocol: Commercial annonacin (Cayman Chemical, Michigan, MI, USA) was diluted in DMSO and stored in small aliquots of 100 µM stock solution at -80 °C. For annonacin titration, LUHMES cells were seeded onto a 48-well microplate and intoxicated on day 6 of differentiation with different concentrations of annonacin, over a period of 48 h, in glucose-reduced differentiation medium of DMEM without glucose (Gibco), supplemented with 2.4 mM glucose, 1% N-2 supplement, 1 µg/ml tetracycline, […] GDNF, and 490 µg/ml dbcAMP to mimic the physiological concentration of glucose in the human brain[44],[45]. Each experimental condition was run in triplicates. Cell viability was measured by calcein viability assay, as detailed below. […]
# The calcein AM green dye (Thermo Fisher Scientific) was diluted in DMSO to obtain a 1 mM stock solution. […] Cells were lysed in a 200 µl volume of 1% Triton™ X-100 in PBS (phosphate buffered saline) and the lysate transferred to a 96‐well black plate for the readout. The fluorescence signal was measured on a FLUOstar® Omega plate reader (BMG LabTech, Ortenberg, Germany) at λ Ex/Em = 485/530 nm and data was analyzed with the MARS data analysis software (BMG LabTech). For background correction, we subtracted the background control signal from the measured values of all experimental conditions. […]
compound,measurement,value
CCCCCCCCCCCC[C@@H](O)[C@H]1CC[C@H]([C@H](O)CCCC[C@H](O)CCCCC[C@@H](O)CC2=CC(C)OC2=O)O1 (stereo partly shown) [annonacin],cell viability,approximately 50 % of the untreated condition
